Patent US8426138B2 (priority 2006, dated 2013)

Legend:
[1] = target: T1, β2-adrenergic receptor (Homo sapiens, UniProt P07550); type: cell-based; conditions: for outcome in high-throughput screen of kinase/phosphatase inhibitor library: library at 3 uM, 384-well plate, duplicate
T1 construct: expressed in transfected cells; host or cells: C2C12 myoblasts (retroviral transduction)

[2] = target: T1, β2-adrenergic receptor; type: cell-based; conditions: compound applied 30 min before stimulation with 10 uM isoproterenol
Procedure: Assays and cell preparation. […] LysoTracker Red and Texas Red-labeled transferrin were purchased from Molecular Probes. The Kinase/Phosphatase Inhibitor Library was purchased from BIOMOL, and the Mechanistic and Diversity Compound Libraries were provided by the Developmental Therapeutics Program of the National Cancer Institute. Cells were plated and grown to confluency in 96-well white tissue culture dishes (Corning Costar), in 100 μl of growth media. Dose-response curves were generated by adding the respective ligand to the media and incubating for 2 h at 37° C. […] At the end of the described incubation time, Gal-Screen reagent (Buffer B formulation, Applied Biosystems) was used to assay for β-galactosidase activity, according to manufacturer's protocol; media was aspirated from the plate, and 50 μl (or 25 μl for 384-well plates, without prior media aspiration) of Gal-Screen substrate diluted in lysis buffer was added to each well.

[3] = target: Angiotensin II receptor 1a (AT1a) (Mus musculus, UniProt P29754); conditions: 2 hr
Source text: Plasmids. […] Other FYVE domains were generated similarly by RT-PCR^˜. […] To generate a β2AR-eYFP-α construct, the eYFP-α fragment was subcloned into the β2AR-ωplasmid using Xhol and HindIII. The Angiotensin receptor 1a was derived by RT-PCR from C57/BI6 mouse brain RNA using primers for the entire coding sequence, minus the stop codon; it was cloned N-terminally to eYFP-α or ω with MfeI and XhoI. […] Finally, to generate fusion proteins with β-arrestin, the full coding sequence of human β-arrestin B2 was PCR amplified from a cDNA clone and inserted into the Mfel-XhoI sites of the ω and eYFP-α vectors.
Assays and cell preparation. […] LysoTracker Red and Texas Red-labeled transferrin were purchased from Molecular Probes. The Kinase/Phosphatase Inhibitor Library was purchased from BIOMOL, and the Mechanistic and Diversity Compound Libraries were provided by the Developmental Therapeutics Program of the National Cancer Institute. Cells were plated and grown to confluency in 96-well white tissue culture dishes (Corning Costar), in 100 μl of growth media. Dose-response curves were generated by adding the respective ligand to the media and incubating for 2 h at 37° C. […]

T1 sequence (P07550 whole entry, species assumed): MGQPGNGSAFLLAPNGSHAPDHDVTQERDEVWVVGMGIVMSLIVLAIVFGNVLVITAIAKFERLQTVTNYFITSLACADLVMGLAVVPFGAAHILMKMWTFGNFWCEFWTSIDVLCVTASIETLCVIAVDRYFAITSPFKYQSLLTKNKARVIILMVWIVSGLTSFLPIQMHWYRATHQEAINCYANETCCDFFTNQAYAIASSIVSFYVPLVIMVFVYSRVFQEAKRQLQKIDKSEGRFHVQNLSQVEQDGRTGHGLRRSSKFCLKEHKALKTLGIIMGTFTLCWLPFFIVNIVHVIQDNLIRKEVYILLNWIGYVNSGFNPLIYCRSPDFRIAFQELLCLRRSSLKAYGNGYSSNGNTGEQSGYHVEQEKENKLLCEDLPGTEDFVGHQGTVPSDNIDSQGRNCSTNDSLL

In the case of `O=CN/C=C/c1cc(O)ccc1O` [erbstatin], the “outcome in high-throughput screen of kinase/phosphatase inhibitor library” value [1] was “inhibitors of internalization”.

In the case of `CN[C@@H]1C[C@H]2O[C@@](C)([C@@H]1OC)n1c3ccccc3c3c4c(c5c6ccccc6n2c5c31)C(=O)NC4` [staurosporine], the “outcome in high-throughput screen of kinase/phosphatase inhibitor library” value [1] was “inhibitors of internalization”.

In the case of `COC[C@H]1OC(=O)c2coc3c2[C@@]1(C)C1=C(C3=O)[C@@H]2CCC(=O)[C@@]2(C)C[C@H]1OC(C)=O` [wortmannin], the “inhibition, internalization assay” value [1] was “approximately 90%” and the inhibition of activation [2] was “approximately 50%”.

With angiotensin II the “increase in activity, internalization assay” value [3] was 4 fold and the “increase in enzyme activity, arrestin-binding activation assay” value [3] was 8.5 fold.
